Data reported in patent publication US20120015012A1, “COSMETIC COMPOSITION CONTAINING KETOGLUCONIC ACID DERIVATIVES” (SOLIANCE, priority 2009, published 2012).
Where a name gives a salt, the structure may show the parent alone. Marks after values point to notes of the source that are not given here.

Experiments:
[1] = test system: normal adult human dermal fibroblasts; assay: Neosynthesis of hyaluronic acid in normal adult human dermal fibroblasts cultured in monolayers (ELISA on culture media); type: cell-based; conditions: incubation 24 hours
Method: (§1) Confluent monolayers of normal human dermal fibroblasts were obtained by culturing cells obtained from abdominoplasty performed on a person. The fibroblasts were isolated by enzymatic digestion using Dispase and collagenase and were then cultured in DMEM (Dulbecco's Modified Eagle's Medium) and Ham's F12 medium in (1:1) ratio containing 10% of fetal calf serum, antibiotics and amphotericin B.
The reference activator used is transforming growth factor β (TGF-β) at a concentration of 10 ng/ml.
(§2) The fibroblasts were incubated for 24 hours at 37° C., under a humid atmosphere and 5% CO2, in the absence (culture medium only) or in the presence of the reference product, or of increasing concentrations of test products (10, 100 and 1000 μg/ml) for both products. The test products were dissolved directly in the culture medium.
At the end of the incubation period, the hyaluronic acid contained in the culture media was quantified using a sensitive and specific ELISA kit.
At the end of the incubation period, the proteins contained in the cellular lysates were quantified by Bradford's spectrocolorimetric method.
The results are given in the form of ng of hyaluronic acid per μg of total proteins of the cell lawn (mean±standard deviation, SD). The statistical significance of the differences observed between the “Control” and “Reference Product” conditions was evaluated by a Student test (Student t-test). The statistical significance of the differences observed between the “Control” and “Test Products” conditions was evaluated product by product, by a one-way analysis of variance (One Way ANOVA or One Way Anova on Ranks+), followed, when necessary, by a Holm-Sidak or Dunn's test (*: p<0.05).

[2] = test system: normal adult human dermal fibroblasts; assay: Neosynthesis of elastin in normal adult human dermal fibroblasts cultured in monolayers (spectrocolorimetric method on culture media); type: cell-based; conditions: incubation 96 hours; for increase in the neosynthesis of elastin: versus control
Method: as §1, with “The fibroblasts are isolated by” for “The fibroblasts were isolated by”, “collagenase and then cultivated” for “collagenase and were then cultured”, “and then cultivated in DMEM” for “were then cultured in DMEM”
The reference activator used is ascorbic acid at a concentration of 100 μg/ml.
as §2, with “96” for “24”, “under” for “under a”, “(10;” for “(10,”
At the end of the incubation time, the elastin contained in the culture media was quantified by a spectrocolorimetric method.
At the end of the incubation time, the proteins contained in the cellular lysates were quantified by Bradford's spectrocolorimetric method.
The results are given in the form of ng of elastin per μg of total proteins of the cell lawn (mean±standard deviation, SD). The statistical significance of the differences observed between the “Control” and “Reference Product” conditions was evaluated by a Student test (Student t-test). The statistical significance of the differences observed between the “Control” and “Test Products” conditions was evaluated product by product, by a one-way analysis of variance (One Way ANOVA or One Way Anova on Ranks+), followed, when necessary, by a Holm-Sidak or Dunn's test (*: p<0.05).

| Compound | production of hyaluronic acid, % control ([1]; 10 μg/ml) [% control] | production of hyaluronic acid, mean value ([1]; 10 μg/ml) | production of hyaluronic acid, % control ([1]; 100 μg/ml) [% control] | production of hyaluronic acid, mean value ([1]; 100 μg/ml) | increase in the neosynthesis of hyaluronic acid ([1]; 100 μg/ml, versus control) [%] | production of hyaluronic acid, % control ([1]; 1000 μg/ml) [% control] | production of hyaluronic acid, mean value ([1]; 1000 μg/ml) | increase in the neosynthesis of hyaluronic acid ([1]; 1000 μg/ml, versus control) [%] | production of elastin, % control ([2]; 10 μg/ml) [% control] | production of elastin, mean value ([2]; 10 μg/ml) | production of elastin, % control ([2]; 100 μg/ml) [% control] | production of elastin, mean value ([2]; 100 μg/ml) | increase in the neosynthesis of elastin ([2]; 100 μg/ml) [%] | production of elastin, % control ([2]; 1000 μg/ml) [% control] | production of elastin, mean value ([2]; 1000 μg/ml) | increase in the neosynthesis of elastin ([2]; 1000 μg/ml) [%] | further results |
| --- | --- | --- | --- | --- | --- | --- | --- | --- | --- | --- | --- | --- | --- | --- | --- | --- | --- |
| O=C(O)C(=O)C(O)C(O)C(O)CO (stereo not shown) [2KO, calcium salt of 2-keto-(D)-gluconic acid] | 101.2 | 18.5 ng of hyaluronic acid per μg of total proteins | 136.3 | 25.0* ng of hyaluronic acid per μg of total proteins | 36.3 | 192.7 | 35.3* ng of hyaluronic acid per μg of total proteins | 92.7 | 139.7 | 12.6* ng of elastin per μg of total proteins | 144.6 | 13.1* ng of elastin per μg of total proteins | 44.6 | 135.8 | 12.3* ng of elastin per μg of total proteins | 35.8 | increase in the neosynthesis of elastin ([2]; 10 μg/ml): 39.7% |
| O=C1O[C@H]([C@@H](O)CO)C(O)=C1O [Ascorbic acid, ascorbic acid, reference compound] |  |  |  |  |  |  |  |  |  |  | 140.3 | 12.7*** ng of elastin per μg of total proteins | 40.3 |  |  |  |  |
| O=C([O-])C(O)C(O)C(O)C(=O)CO.[K+] (stereo not shown) [5KO, potassium salt of 5-keto-(D)-gluconic acid] | 123.3 | 22.6* ng of hyaluronic acid per μg of total proteins | 144.9 | 26.6* ng of hyaluronic acid per μg of total proteins | 44.9 | 144.0 | 26.4* ng of hyaluronic acid per μg of total proteins | 44.0 | 104.8 | 9.5 ng of elastin per μg of total proteins | 118.9 | 10.7 ng of elastin per μg of total proteins | 18.9 | 184.4 | 16.7* ng of elastin per μg of total proteins | 84.4 | increase in the neosynthesis of hyaluronic acid ([1]; 10 μg/ml, versus control): 23.3% |
| TGF-β: reference activator, transforming growth factor β (TGF-β), used at 10 ng/ml [reference compound] |  |  |  |  |  |  |  |  |  |  |  |  |  |  |  |  | production of hyaluronic acid, % control ([1]; 10 ng/ml): 226.3 % control; production of hyaluronic acid, mean value ([1]; 10 ng/ml): 41.5*** ng of hyaluronic acid per μg of total proteins; increase in fibroblast production of hyaluronic acid ([1]; 10 ng/ml, versus control): 126.3% |
